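96-well plates; 48 h exposure; 5 concentrations. Endpoints by linear interpolation between flanking doses. Not reached: highest tested concentration assigned. The concentration for full growth arrest is given as TGI.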
What was measured:
Assay in all cases: NCI tumour cell line growth inhibition, 48 h
[1] = system: 786-0 renal
[2] = system: A498 renal
[3] = system: A549 NSCLC
[4] = system: ACHN renal
[5] = system: BT-549 breast
[6] = system: CAKI-1 renal
[7] = system: CCRF-CEM leukemia
[8] = system: COLO 205 colon
[9] = system: DU-145 prostate
[10] = system: EKVX NSCLC
[11] = system: HCC-2998 colon
[12] = system: HCT-116 colon
[13] = system: HCT-15 colon
[14] = system: HOP-62 NSCLC
[15] = system: HOP-92 NSCLC
[16] = system: HS 578T breast
[17] = system: HT29 colon
[18] = system: IGROV1 ovarian
[19] = system: K-562 leukemia
[20] = system: KM12 colon
[21] = system: LOX IMVI melanoma
[22] = system: M14 melanoma
[23] = system: MCF7 breast
[24] = system: MDA-MB-231 breast
[25] = system: MDA-MB-435
[26] = system: MOLT-4 leukemia
[27] = system: NCI-H226 lung
[28] = system: NCI-H23 lung
[29] = system: NCI-H522 lung
[30] = system: NCI/ADR-RES ovarian
[31] = system: OVCAR-3 ovarian
[32] = system: OVCAR-4 ovarian
[33] = system: OVCAR-5 ovarian
[34] = system: OVCAR-8 ovarian
[35] = system: PC-3 prostate
[36] = system: RPMI-8226 leukemia
[37] = system: RXF 393 renal
[38] = system: SF-268 CNS
[39] = system: SF-295 CNS
[40] = system: SF-539 CNS
[41] = system: SK-MEL-2 melanoma
[42] = system: SK-MEL-28 melanoma
[43] = system: SK-MEL-5 melanoma
[44] = system: SK-OV-3 ovarian
[45] = system: SN12C renal
[46] = system: SNB-19 CNS
[47] = system: SNB-75 CNS
[48] = system: SR leukemia
[49] = system: SW-620 colon
[50] = system: T-47D breast
[51] = system: TK-10 renal
[52] = system: U251 CNS
[53] = system: UACC-257 melanoma
[54] = system: UACC-62 melanoma
[55] = system: UO-31 renal

COc1ccc2c(c1)CCN1CCCc3ccccc3C21 (stereo not given)
TGI [1]: > 100 µM | TGI [2]: > 100 µM | TGI [3]: > 100 µM | TGI [4]: > 100 µM | TGI [5]: 86.6 µM | TGI [6]: > 100 µM | TGI [7]: > 100 µM | TGI [8]: > 100 µM | TGI [9]: > 100 µM | TGI [10]: > 100 µM | TGI [11]: 80.8 µM | TGI [12]: 92.8 µM | TGI [13]: > 100 µM | TGI [14]: > 100 µM | TGI [15]: > 100 µM | TGI [16]: > 100 µM | TGI [17]: > 100 µM | TGI [18]: > 100 µM | TGI [19]: > 100 µM | TGI [20]: > 100 µM | TGI [21]: 57.9 µM | TGI [22]: 37.9 µM | TGI [23]: > 100 µM | TGI [24]: > 100 µM | TGI [25]: 52.5 µM | TGI [26]: > 100 µM | TGI [27]: > 100 µM | TGI [28]: > 100 µM | TGI [29]: > 100 µM | TGI [30]: > 100 µM | TGI [31]: > 100 µM | TGI [32]: > 100 µM | TGI [33]: > 100 µM | TGI [34]: > 100 µM | TGI [35]: > 100 µM | TGI [36]: 58.2 µM | TGI [37]: > 100 µM | TGI [38]: > 100 µM | TGI [39]: > 100 µM | TGI [40]: 34.7 µM | TGI [41]: > 100 µM | TGI [42]: > 100 µM | TGI [43]: > 100 µM | TGI [44]: > 100 µM | TGI [45]: > 100 µM | TGI [46]: > 100 µM | TGI [47]: 78.5 µM | TGI [48]: > 100 µM | TGI [49]: > 100 µM | TGI [50]: > 100 µM | TGI [51]: > 100 µM | TGI [52]: > 100 µM | TGI [53]: > 100 µM | TGI [54]: > 100 µM | TGI [55]: > 100 µM

From PubChem BioAssay (NCI)
